Experimental data taken from patent US11498928B2, “Macrocyclic spiroethers as Mcl-1 inhibitors” (ASCENTAGE PHARMA (SUZHOU) CO., LTD., priority 2019, dated 2022).

Experiments:
[1] = system: OPM-2 cells; experiment: Cell viability assay (OPM-2 cells), CCK-8; format: cell-based; conditions: 5% FBS
Summary of the method: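 Viability read by CCK-8 absorbance (450 nm, 4 h reagent incubation) after 24 h compound exposure of 20000 OPM-2 cells per well at 37 °C. IC50 fitted by nonlinear regression on vehicle-normalized signal.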

[2] = biological target: T1, Mcl-1 protein (residues 171-323) (Homo sapiens, UniProt Q07820); experiment: Inhibition of Mcl-1 by fluorescence polarization (FP) competitive binding assay with FAM-Bid tracer; conditions: 2 nM FAM-Bid, 20 nM Mcl-1, 30 min
T1 construct: Tag-free Mcl-1 protein (residues 171-323) was used in the FP assay
T1 sequence (Q07820 171-323): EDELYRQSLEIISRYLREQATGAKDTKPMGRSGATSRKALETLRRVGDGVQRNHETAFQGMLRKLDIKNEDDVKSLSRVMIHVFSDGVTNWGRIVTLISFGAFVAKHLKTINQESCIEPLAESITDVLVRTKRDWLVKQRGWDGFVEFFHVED
Summary of the method: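 Ten-point compound titrations compete against 2 nM fluorescein-Bid for 20 nM Mcl-1 (171-323, untagged). Incubation 30 min RT in PBS buffer with BGG and Triton, 5% DMSO final. mP reduction fitted by sigmoidal nonlinear regression for IC50.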

[3] = system: NCI-H929 cells; experiment: Cell viability assay (NCI-H929 cells), CCK-8; format: cell-based; conditions: 5% FBS
Summary of the method: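 Viability of NCI-H929 cells was measured using the Cell Counting Kit-8. After 24 hrs of compound exposure, 10 μL of CCK-8 solution per well was incubated for 1-4 hours, and absorbance was read at 450 nm on a BioTek Synergy 1MF. Readings were normalized to vehicle (DMSO) cells, and IC50 values were derived by nonlinear regression in GraphPad Prism 6.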

| Structure (SMILES) | IC50 ([1]; Homo sapiens, OPM-2, 24 h) [nM] | IC50 [2] [nM] | IC50 ([3]; Homo sapiens, NCI-H929, 24 h) [nM] | IC50 ([1]; 24 h) [nM] | IC50 ([3]; 24 h) [nM] |
| --- | --- | --- | --- | --- | --- |
| CO[C@H]1C2=C[C@@H](C2)[C@H](C)N(C[C@H]2CCCO2)S(=O)(=O)NC(=O)c2ccc3c(c2)N(C[C@@H]2CC[C@H]21)C[C@@]1(CCCc2cc(Cl)ccc21)CO3 (single isomer, unassigned) [30 (isomer 4)] | > 10000 | 21 | > 10000 | – | – |
| C[C@@H]1[C@@H](C)S(=O)(=O)NC(=O)c2ccc3c(c2)N(C[C@@H]2CC[C@H]2[C@@H](OCCS(C)(=O)=O)C2=C[C@H]1C2)C[C@@]1(CCCc2c1ccc(Cl)c2F)CO3 [compound 61, (1S,11′R,12′S,13′R,16′R,16a′R,18a′R,E)-6-chloro-5-fluoro-11′,12′-dimethyl-16′-(2-(methylsulfonyl)ethoxy)-3,4,12′,13′,16′,16a′,17′,18′,18a′,19′-decahydro-1′H,2H,3′H,11′H-spiro[naphthalene-1,2′-[5,7]etheno[13,15]methanocyclobuta[i][1,4]oxazepino[3,4-f][1]thia[2,7]diazacyclohexadecin]-8′(9′H)-one 10′,10′-dioxide] | 75 | 10 | 28 | – | – |
| CO[C@@H]1C2=CC(C2)[C@H](C)N(C)S(=O)(=O)NC(=O)c2ccc3c(c2)N(C[C@@H]2CC[C@H]21)C[C@@]1(CCCc2cc(Cl)ccc21)CO3 (single isomer, unassigned) [27 (isomer 2)] | – | 3.4 | – | 3610 | 5000 |
| CO[C@@H]1C2=CC(CCS(=O)(=O)NC(=O)c3ccc4c(c3)N(C[C@@H]3CC[C@H]31)C[C@@]1(CCCc3cc(Cl)ccc31)CO4)C2 (single isomer, unassigned) [Cpd. No. 4 (Isomer 1)] | – | 8.3 | – | 5720 | 4200 |
| CC[C@@H]1CS(=O)(=O)NC(=O)c2ccc3c(c2)N(C[C@@H]2CC[C@H]2[C@@H](OC)C2=CC1C2)C[C@@]1(CCCc2cc(Cl)ccc21)CO3 (single isomer, unassigned) [Cpd. No. 10 (Isomer 1)] | – | 4.9 | – | 2500 | 1700 |
| C[C@@H]1[C@@H](C)S(=O)(=O)NC(=O)c2ccc3c(c2)N(C[C@@H]2CC[C@H]2[C@@H](N(C)C)C2=C[C@H]1C2)C[C@@]1(CCCc2c1ccc(Cl)c2F)CO3 [compound 57, (1S,11′R,12′S,13′R,16′R,16a′R,18a′R)-6-chloro-16′-(dimethylamino)-5-fluoro-11′,12′-dimethyl-3,4,12′,13′,16′,16a′,17′,18′,18a′,19′-decahydro-1′H,2H,3′H,11′H-spiro[naphthalene-1,2′-[5,7]etheno[13,15]methanocyclobuta[i][1,4]oxazepino[3,4-f][1]thia[2,7]diazacyclohexadecin]-8′(9′H)-one 10′,10′-dioxide] | 36 | 13 | 43 | – | – |
| CO[C@@]1(CN2CCN3CCOC[C@@H]3C2)C2=C[C@@H](C2)[C@H](C)[C@@H](C)S(=O)(=O)NC(=O)c2ccc3c(c2)N(C[C@@H]2CC[C@H]21)C[C@@]1(CCCc2c1ccc(Cl)c2F)CO3 [compound 51, (1S,11′R,12′S,13′R,16′R,16a′R,18a′R,E)-6-chloro-5-fluoro-16′-(((S)-hexahydropyrazino[2,1-c][1,4]oxazin-8(1H)-yl)methyl)-16′-methoxy-11′,12′-dimethyl-3,4,12′,13′,16′,16a′,17′,18′,18a′,19′-decahydro-1′H,2H,3′H,11′H-spiro[naphthalene-1,2′-[5,7]etheno[13,15]methanocyclobuta[i][1,4]oxazepino[3,4-f][1]thia[2,7]diazacyclohexadecin]-8′(9′H)-one 10′,10′-dioxide] | 14 | 7.4 | 6 | – | – |
| CO[C@H]1C2=CC(C2)CC(C)S(=O)(=O)NC(=O)c2ccc3c(c2)N(C[C@@H]2CC[C@H]21)C[C@@]1(CCCc2cc(Cl)ccc21)CO3 (mixture of isomers) [11 (mixture)] | 967 | 5.5 | 270 | – | – |
| CO[C@@]1(CN2C[C@@H](C)N(C)[C@@H](C)C2)C2=C[C@@H](C2)[C@H](C)[C@@H](C)S(=O)(=O)NC(=O)c2ccc3c(c2)N(C[C@@H]2CC[C@H]21)C[C@@]1(CCCc2c1ccc(Cl)c2F)CO3 [compound 40, (1S,11′R,12′S,13′R,16′R,16a′R,18a′R,E)-6-chloro-5-fluoro-16′-methoxy-11′,12′-dimethyl-16′-(((3S,5R)-3,4,5-trimethylpiperazin-1-yl)methyl)-3,4,12′,13′,16′,16a′,17′,18′,18a′,19′-decahydro-1′H,2H,3′H,11′H-spiro[naphthalene-1,2′-[5,7]etheno[13,15]methanocyclobuta[i][1,4]oxazepino[3,4-f][1]thia[2,7]diazacyclohexadecin]-8′(9′H)-one 10′,10′-dioxide] | 55 | 17 | 2.6 | – | – |
| CO[C@H]1C2=CC(C2)CC(C)S(=O)(=O)NC(=O)c2ccc3c(c2)N(C[C@@H]2CC[C@H]21)C[C@@]1(CCCc2cc(Cl)ccc21)CO3 (single isomer, unassigned) [11 (Isomer 1)] | – | 6.5 | – | 87 | 86 |
| CC[C@@H]1CS(=O)(=O)NC(=O)c2ccc3c(c2)N(C[C@@H]2CC[C@H]2[C@@H](OC)C2=CC1C2)C[C@@]1(CCCc2cc(Cl)ccc21)CO3 (single isomer, unassigned) [Cpd. No. 9 (Isomer 2)] | – | 3.9 | – | 260 | 210 |
| CO[C@H]1C2=CC(C2)[C@@H](C)[C@H](C)S(=O)(=O)NC(=O)c2ccc3c(c2)N(C[C@@H]2CC[C@H]21)C[C@@]1(CCCc2cc(Cl)ccc21)CO3 (single isomer, unassigned) [12 (Isomer 1)] | 17200 | 4.8 | – | – | > 10000 |
| CO[C@H]1C2=CC(C2)C(C)(C)CS(=O)(=O)NC(=O)c2ccc3c(c2)N(C[C@@H]2CC[C@H]21)C[C@@]1(CCCc2cc(Cl)ccc21)CO3 (single isomer, unassigned) [Cpd. No. 5 (Isomer 2)] | – | 8.3 | – | 5210 | 1600 |
| CO[C@@]1(CN2CCN(S(C)(=O)=O)CC2)C2=C[C@@H](C2)[C@H](C)[C@@H](C)S(=O)(=O)NC(=O)c2ccc3c(c2)N(C[C@@H]2CC[C@H]21)C[C@@]1(CCCc2c1ccc(Cl)c2F)CO3 [compound 38, (1S,11′R,12′S,13′R,16′R,16a′R,18a′R,E)-6-chloro-5-fluoro-16′-methoxy-1′,12′-dimethyl-16′-((4-(methylsulfonyl)piperazin-1-yl)methyl)-3,4,12′,13′,16′,16a′,17′,18′,18a′,19′-decahydro-1′H,2H,3′H,11′H-spiro[naphthalene-1,2′-[5,7]etheno[13,15]methanocyclobuta[i][1,4]oxazepino[3,4-f][1]thia[2,7]diazacyclohexadecin]-8′(9′H)-one 10′,10′-dioxide] | 30 | 15 | 50 | – | – |
| CNCCO[C@H]1C2=C[C@@H](C2)[C@H](C)[C@@H](C)S(=O)(=O)NC(=O)c2ccc3c(c2)N(C[C@@H]2CC[C@H]21)C[C@@]1(CCCc2c1ccc(Cl)c2F)CO3 [compound 78, (1S,11′R,12′S,13′R,16′R,16a′R,18a′R,E)-6-chloro-5-fluoro-11′,12′-dimethyl-16′-(2-(methylamino)ethoxy)-3,4,12′,13′,16′,16a′,17′,18′,18a′,19′-decahydro-1′H,2H,3′H, 11′H-spiro[naphthalene-1,2′-[5,7]etheno[13,15]methanocyclobuta[i][1,4]oxazepino[3,4-f][1]thia[2,7]diazacyclohexadecin]-8′(9′H)-one 10′,10′-dioxide] | 184 | 16 | 66 | – | – |
